This is an account of results in publication PMC12189671, “Antioxidant Activity and Cytotoxicity Evaluation of New Catechol Hydrazinyl-Thiazole Derivatives as Potential Protectors in Retinal Degenerative Processes” (Antioxidants, 2025).

A short description of data set [1]: Cell viability (resazurin) on ARPE-19. It counts as cell-based, human. The settings on record: human, ARPE-19 cells; for IC50 at 24 h: ARPE-19, 24 h, read-out: 24 h Exposure IC50 (cytotoxicity); for IC50 at 48 h: ARPE-19, 48 h, read-out: 48 h Exposure IC50 (cytotoxicity). From the text:
(§1) The ARPE-19 cell line was purchased from CLS Cell Lines Service GmbH (Eppelheim, Germany) and cultured in Dulbecco’s modified Eagle’s medium/F-12 (HAM) 1:1 (Biological Industries, Beit, Israel). The medium was supplemented with 10% fetal bovine serum (FBS) (Thermo Fisher Scientific, Waltham, MA, USA) and 1% penicillin-streptomycin (Biosera, Cholet, France). The cancerous cell line A549 was purchased from ATCC (Manassas, VA, USA) and cultivated in high-glucose Dulbecco’s modified Eagle’s medium (DMEM 4.5 g/L). The normal BJ cell line was also purchased from ATCC (Manassas, VA, USA) and was cultivated in low-glucose Dulbecco’s modified Eagle’s medium (DMEM 1 g/L). The media was supplemented in both cases with 10% FBS. Cells were cultured in T75 flasks and incubated at 37 °C in a humidified incubator with 5% CO2 supplementation. For maintenance, the media was changed every 2–3 days, and when the confluence of the flask reached approximately 85%, the cells were either subcultured or further used in the experiments.
(§2) ARPE-19 cells were seeded at a density of 2 × 10^4 cells/well and 1 × 10^4 cells/well (suspended in 100 µL) in 96-well plates for 24 h and 48 h, respectively. For the BJ cells, the seeding density was 0.5 × 10^4 cells/well and 0.3 × 10^4 cells/well for 24 h and 48 h, respectively, and for the A549 cells, 1.5 × 10^4 cells/well for 24 h and 0.75 × 10^4 cells/well for 48 h. As cells have different sizes and volumes, the different seeding densities were selected to reach a confluency of 80–90% by the end of the experiments. Cells were further exposed to the synthesized compounds for 24/48 h at concentrations ranging from 12.5 to 500 µM. After the incubation period, the exposure media was removed, the cells were washed with PBS, and further incubated with a 200 µM resazurin solution for 3 h as described in our previous report. The conversion of resazurin to the fluorescent resorufin compound by viable cells was measured at λexcitation = 550; λemission = 600, using SpectraMax iD3 (Molecular Devices, San Jose, CA, USA). The experiments were conducted in biological triplicate, each with a minimum of 3 technical replicates. The measured viability was expressed as relative values to the control (cells exposed only to the vehicle–culture medium containing 0.4% DMSO).

The subject of the next data set is ARPE-19 cells. Put plainly: Cell viability (resazurin) on ARPE-19. The format is cell-based, human. The following applies: ARPE-19, up to 50 µM.
Text: as §1, §2

The structures appear in SMILES notation.

Turning to `C/C=C/C=N/Nc1nc(-c2ccc(O)c(O)c2)cs1.Cl` [Compound 5a, 4-(2-(2-((1E,2E)-but-2-en-1-ylidene)hydrazineyl)thiazol-4-yl)benzene-1,2-diol hydrochloride], in data set [1], the IC50 at 24 h was 90.1 µM and the IC50 at 48 h amounted to 92.7 µM. Besides, the “effect on ARPE-19 cell viability” value in the data set with ARPE-19 cells is reported as “slight proliferative effect”.

Consider `CC1=C(/C=C/C(C)=N/Nc2nc(-c3ccc(O)c(O)c3)cs2)C(C)(C)CCC1.Cl` [Compound 5b, 4-(2-(2-((2E,3E)-4-(2,6,6-trimethylcyclohex-1-en-1-yl)but-3-en-2-ylidene) hydrazineyl)thiazol-4-yl)benzene-1,2-diol hydrochloride], for which, in data set [1], the IC50 at 24 h was 31.5 µM and the IC50 at 48 h came to 52.1 µM. Moreover, the viability at 24 h, 12.5 µM in data set [1] (ARPE-19, 24-h exposure, 12.5 µM, read-out: cell viability (% of control)) was determined as 63.5%.
